Reference: patent US20220087960A1, “Oral Pharmaceutical Immediate Release Composition” (Aardvark Therapeutics Inc., priority 2020, published 2022)
Like-named read-outs stand apart in the source and are kept apart here.

Assays:
male SD rats = assay: Single oral dose food intake study, 24-hour observational period (Example 6, first in vivo study); parameters: species or system rat
Description: This example compares efficacy of DA versus DB in food inhibition and body weight control. As a background, according to Avau et al., Sci. Rep. […] In our first in vivo study, 45 male SD rats (purchased from Envigo at 8-10 weeks of age) were divided into three groups (15 in each group), which were administered a single oral dose of vehicle (distilled water), 26.8 mg/kg of DB, or 23.1 mg/kg of DA respectively, with a 24-hour observational period, to compare the efficacy of DB versus DA in reducing food intake. Table 4. Mean cumulative food intake during 24-h observational period

male C57BL/6N DIO mice = assay: 56-day BID treatment, food consumption and body weight in DIO mice (Example 6, second in vivo study); parameters: species or system mouse
Description: In a second in vivo study, 45 male C57BL/6N DIO mice (purchased from Envigo at 18 weeks of age, fed with high-fat diet) were divided into three groups (15 in each group), which were orally administered vehicle (distilled water), 26.8 mg/kg of DB, or 23.1 mg/kg of DA respectively, twice daily (BID), with a 56-day treatment period to compare the efficacy of DB versus DA in food intake reduction and body weight control. Briefly, once weekly, the food weight for each cage was recorded at 0 hour and then 24 hours later, permitting calculation of food consumption for that 24-hour interval. In addition, starting from Day 0, the mice were weighed three times weekly (every 2-3 days).

[1] = Maximum tolerated dose / LD50 study, single oral gavage, 14-day observational period (Example 7); details: both, Sprague Dawley, rat, in vivo
Description: (§1) The drugs were administered to Sprague Dawley rats with a 14-day observational period. Twenty-four Male Sprague Dawley (SD) rats and 24 female SD rats were purchased from Envigo at 8-10 weeks of age. The DA group had four dose levels (120, 360, 1000, and 2000 mg/kg, single administration by oral gavage), 3 rats per sex, 6 animals in total per dose level; and the DB group: four dose levels (120, 360, 1000, and 2000 mg/kg, single administration by oral gavage), 3 rats per sex, 6 animals in total per dose level. The estimated median lethal dose (LD50) was determined by a nonlinear regression [model: Y=100/(1+10^(LogEC50-X)), Hill slope=1.0) to calculate LD50.

Sprague Dawley rats = assay: in vivo; details: rat, po; for Mortality rate: both, 14 day
Description: as §1

[2] = system: human TAS2Rs (TAS2R 4, 8, 10, 13, 39, 43, 46, and 47); details: cited from earlier work
normal C57BL/6 mice = details: oral 60 μmol/kg (26.8 mg/kg); cited from earlier work
C57BL/6 DIO mice = details: 60 μmol/kg (26.8 mg/kg) once daily, 28-day period; cited from earlier work
healthy volunteers = details: intragastric administration, cited from earlier work; for nutrient volume tolerance / satiation: 1 μmol/kg DB

CC[N+](CC)(CC(=O)Nc1c(C)cccc1C)Cc1ccccc1.O=C([O-])c1ccccc1 [DB, benzyl-[2-(2,6-dimethylanilino)-2-oxoethyl]-diethylazanium benzoate]
Mean cumulative food intake 0-2 h (male SD rats; single oral dose (DA 23.1 mg/kg, DB 26.8 mg/kg), 0-2 h, N = 15): 4.8 gram | Mean cumulative food intake 0-4 h (male SD rats; single oral dose (DA 23.1 mg/kg, DB 26.8 mg/kg), 0-4 h, N = 15): 7.7 gram | Mean cumulative food intake 0-6 h (male SD rats; single oral dose (DA 23.1 mg/kg, DB 26.8 mg/kg), 0-6 h, N = 15): 10.9 gram | Mean cumulative food intake 0-8 h (male SD rats; single oral dose (DA 23.1 mg/kg, DB 26.8 mg/kg), 0-8 h, N = 15): 13.8 gram | Mean cumulative food intake 0-24 h (male SD rats; single oral dose (DA 23.1 mg/kg, DB 26.8 mg/kg), 0-24 h, N = 15): 20.6 gram | cumulative food intake as compared with vehicle (male SD rats; single oral dose, all indicated time intervals): reduced cumulative food intake during all the indicated time intervals as compared with vehicle | body weight gain as compared to vehicle treatment (male C57BL/6N DIO mice; DIO mice on high-fat diet, 26.8 mg/kg DB or 23.1 mg/kg DA BID): less body weight gain as compared to vehicle treatment | Mean food consumption per animal for 24-h interval, Day 0 (male C57BL/6N DIO mice; DIO mice, BID oral (DA 23.1 mg/kg, DB 26.8 mg/kg), Day 0): 2.5 gram | Mean food consumption per animal for 24-h interval, Day 7 (male C57BL/6N DIO mice; DIO mice, BID oral (DA 23.1 mg/kg, DB 26.8 mg/kg), Day 7): 1.8 gram | Mean food consumption per animal for 24-h interval, Day 14 (male C57BL/6N DIO mice; DIO mice, BID oral (DA 23.1 mg/kg, DB 26.8 mg/kg), Day 14): 2.6 gram | Mean food consumption per animal for 24-h interval, Day 21 (male C57BL/6N DIO mice; DIO mice, BID oral (DA 23.1 mg/kg, DB 26.8 mg/kg), Day 21): 2.9 gram | Mean food consumption per animal for 24-h interval, Day 28 (male C57BL/6N DIO mice; DIO mice, BID oral (DA 23.1 mg/kg, DB 26.8 mg/kg), Day 28): 2.5 gram | Mean food consumption per animal for 24-h interval, Day 35 (male C57BL/6N DIO mice; DIO mice, BID oral (DA 23.1 mg/kg, DB 26.8 mg/kg), Day 35): 2.5 gram | Mean food consumption per animal for 24-h interval, Day 42 (male C57BL/6N DIO mice; DIO mice, BID oral (DA 23.1 mg/kg, DB 26.8 mg/kg), Day 42): 2.0 gram | Mean food consumption per animal for 24-h interval, Day 49 (male C57BL/6N DIO mice; DIO mice, BID oral (DA 23.1 mg/kg, DB 26.8 mg/kg), Day 49): 2.4 gram | Mean food consumption per animal for 24-h interval, Day 56 (male C57BL/6N DIO mice; DIO mice, BID oral (DA 23.1 mg/kg, DB 26.8 mg/kg), Day 56): 2.5 gram | Mean normalized body weight (% of baseline), study day 0 (male C57BL/6N DIO mice; DIO mice, BID oral (DA 23.1 mg/kg, DB 26.8 mg/kg), day 0): 100.0 % of baseline | Mean normalized body weight (% of baseline), study day 4 (male C57BL/6N DIO mice; DIO mice, BID oral (DA 23.1 mg/kg, DB 26.8 mg/kg), day 4): 100.5 % of baseline | Mean normalized body weight (% of baseline), study day 7 (male C57BL/6N DIO mice; DIO mice, BID oral (DA 23.1 mg/kg, DB 26.8 mg/kg), day 7): 99.7 % of baseline | Mean normalized body weight (% of baseline), study day 9 (male C57BL/6N DIO mice; DIO mice, BID oral (DA 23.1 mg/kg, DB 26.8 mg/kg), day 9): 99.4 % of baseline | Mean normalized body weight (% of baseline), study day 11 (male C57BL/6N DIO mice; DIO mice, BID oral (DA 23.1 mg/kg, DB 26.8 mg/kg), day 11): 99.0 % of baseline | Mean normalized body weight (% of baseline), study day 14 (male C57BL/6N DIO mice; DIO mice, BID oral (DA 23.1 mg/kg, DB 26.8 mg/kg), day 14): 99.3 % of baseline | Mean normalized body weight (% of baseline), study day 16 (male C57BL/6N DIO mice; DIO mice, BID oral (DA 23.1 mg/kg, DB 26.8 mg/kg), day 16): 98.0 % of baseline | Mean normalized body weight (% of baseline), study day 18 (male C57BL/6N DIO mice; DIO mice, BID oral (DA 23.1 mg/kg, DB 26.8 mg/kg), day 18): 97.9 % of baseline | Mean normalized body weight (% of baseline), study day 21 (male C57BL/6N DIO mice; DIO mice, BID oral (DA 23.1 mg/kg, DB 26.8 mg/kg), day 21): 99.5 % of baseline | Mean normalized body weight (% of baseline), study day 23 (male C57BL/6N DIO mice; DIO mice, BID oral (DA 23.1 mg/kg, DB 26.8 mg/kg), day 23): 100.5 % of baseline | Mean normalized body weight (% of baseline), study day 25 (male C57BL/6N DIO mice; DIO mice, BID oral (DA 23.1 mg/kg, DB 26.8 mg/kg), day 25): 100.3 % of baseline | Mean normalized body weight (% of baseline), study day 28 (male C57BL/6N DIO mice; DIO mice, BID oral (DA 23.1 mg/kg, DB 26.8 mg/kg), day 28): 100.2 % of baseline | Mean normalized body weight (% of baseline), study day 30 (male C57BL/6N DIO mice; DIO mice, BID oral (DA 23.1 mg/kg, DB 26.8 mg/kg), day 30): 100.5 % of baseline | Mean normalized body weight (% of baseline), study day 32 (male C57BL/6N DIO mice; DIO mice, BID oral (DA 23.1 mg/kg, DB 26.8 mg/kg), day 32): 102.8 % of baseline | Mean normalized body weight (% of baseline), study day 34 (male C57BL/6N DIO mice; DIO mice, BID oral (DA 23.1 mg/kg, DB 26.8 mg/kg), day 34): 103.6 % of baseline | Mean normalized body weight (% of baseline), study day 36 (male C57BL/6N DIO mice; DIO mice, BID oral (DA 23.1 mg/kg, DB 26.8 mg/kg), day 36): 104.1 % of baseline | Mean normalized body weight (% of baseline), study day 39 (male C57BL/6N DIO mice; DIO mice, BID oral (DA 23.1 mg/kg, DB 26.8 mg/kg), day 39): 104.7 % of baseline | Mean normalized body weight (% of baseline), study day 41 (male C57BL/6N DIO mice; DIO mice, BID oral (DA 23.1 mg/kg, DB 26.8 mg/kg), day 41): 105.3 % of baseline | Mean normalized body weight (% of baseline), study day 46 (male C57BL/6N DIO mice; DIO mice, BID oral (DA 23.1 mg/kg, DB 26.8 mg/kg), day 46): 106.0 % of baseline | Mean normalized body weight (% of baseline), study day 49 (male C57BL/6N DIO mice; DIO mice, BID oral (DA 23.1 mg/kg, DB 26.8 mg/kg), day 49): 107.8 % of baseline | Mean normalized body weight (% of baseline), study day 51 (male C57BL/6N DIO mice; DIO mice, BID oral (DA 23.1 mg/kg, DB 26.8 mg/kg), day 51): 107.8 % of baseline | Mean normalized body weight (% of baseline), study day 53 (male C57BL/6N DIO mice; DIO mice, BID oral (DA 23.1 mg/kg, DB 26.8 mg/kg), day 53): 107.4 % of baseline | Mean normalized body weight (% of baseline), study day 56 (male C57BL/6N DIO mice; DIO mice, BID oral (DA 23.1 mg/kg, DB 26.8 mg/kg), day 56): 108.4 % of baseline | food consumption compared to vehicle-dosed mice (male C57BL/6N DIO mice; DIO mice, BID oral, 56-day treatment): Lower food consumption was also seen on Days 0, 7, 28, 35, 42 and 49 | LD50 at 14 day [1]: 784 mg/kg | MTD at 14 day [1]: 360 mg/kg | Mortality rate (Sprague Dawley rats; 120 mg/kg): 0% | Mortality rate (Sprague Dawley rats; 360 mg/kg): 0% | Mortality rate (Sprague Dawley rats; 1000 mg/kg): 66.7% | Mortality rate (Sprague Dawley rats; 2000 mg/kg): 100% | No. of animals died within 24 h post dosing (Sprague Dawley rats; female, 120 mg/kg): 0 | No. of animals died within 24 h post dosing (Sprague Dawley rats; female, 360 mg/kg): 0 | No. of animals died within 24 h post dosing (Sprague Dawley rats; female, 1000 mg/kg): 3 | No. of animals died within 24 h post dosing (Sprague Dawley rats; female, 2000 mg/kg): 3 | No. of animals died within 24 h post dosing (Sprague Dawley rats; male, 120 mg/kg): 0 | No. of animals died within 24 h post dosing (Sprague Dawley rats; male, 360 mg/kg): 0 | No. of animals died within 24 h post dosing (Sprague Dawley rats; male, 1000 mg/kg): 1 | No. of animals died within 24 h post dosing (Sprague Dawley rats; male, 2000 mg/kg): 3 | activation of human TAS2Rs [2]: activates to varying degrees eight human TAS2Rs | gastric emptying rate (normal C57BL/6 mice): significantly inhibited gastric emptying rate | body weight as compared to vehicle (C57BL/6 DIO mice): induced a decrease in body weight | nutrient volume tolerance (healthy volunteers; listed as Denatonium benzoate): reduced nutrient volume tolerance | satiation (healthy volunteers; listed as Denatonium benzoate): increased satiation post meal | nutrient volume tolerance (healthy volunteers): decreased nutrient volume tolerance | satiation (healthy volunteers): increased satiation | hunger ratings (healthy volunteers): decreased hunger ratings | inter-digestive gastric motility (healthy volunteers): attenuated inter-digestive gastric motility
